{
  "source": "patent US9855270B2",
  "about": "“Methods and compositions for modulating estrogen receptor mutants” (priority 2014, dated 2018)",
  "key": {"[1]": {"system": "MCF-7 cells stably expressing UbC HA-ER-α L536R", "assay": "cells", "format": "cell-based", "parameters": "Percent inhibition compared to vehicle: concentration or dose not given beside the values", "conditions": "for EC50: Homo sapiens, MCF7, UbC HA-ER-α L536R, read-out: Potency (EC50; nM); for Percent inhibition compared to vehicle / Efficacy (Emax): UbC HA-ER-α L536R; for Percent inhibition compared to vehicle: 5-Day Incubation; for Efficacy (Emax): Day 5 relative to Day 0", "text": "(§1) MCF-7 Mutant ER-α Stable Cell Line Generation: MCF-7 cells stably expressing wild-type or ER-α mutants were generated by subcloning ESR1 wild-type and mutant cDNAs containing an amino terminal hemagglutinin tag into pCDH-EF1-MCS-(PGK-Puro) (referred to as EF1 HA-ER-α) and pCDH-UbC-MCS-EF1-Hygro (referred to as UbC HA-ER-α) (System Biosciences). The resulting plasmids, in addition to an empty vector negative control, were subsequently cotransfected into HEK293T cells with the pPACKH1 packaging plasmid mix (System Biosciences) according to the manufacturer's protocol. Four days post transfection lentiviral particles were purified from the cell medium, tiered and stored at −80° C. MCF-7 cells were transduced with the purified viral particles and stable cell lines were selected by growth in RPMI containing 10% FBS plus 1 μG/mL puromycin or 200 μG/mL hygromycin for pCDH-EF1-MCS-(PGK-Puro) and pCDH-UbC-MCS-EF1-Hygro, respectively.\n(§2) MCF-7 Stable Cell Line Viability: MCF-7 cells were enumerated with a hemacytometer adjusted to a concentration of 40,000 cells per mL in Phenol Free RPMI containing 10% CSS with NEAA and Sodium Pyruvate. 16 microliters of the cell suspension was added to each well of a 384 well tissue culture treated white clear bottom polystyrene plate (Corning) using a Matrix 16 channel electronic pipette. The cells were incubated overnight to allow the cells to adhere. The following day, 16 microliters of Phenol Free RPMI containing 10% CSS with NEAA and Sodium Pyruvate was added to the wells of one plate, followed by 16 μL of CellTiter-Glo (Promega, Madison Wis.) luminescent cell viability reagent using a Matrix 16 channel electronic pipette. […] The “average” of the relative luminescence units (RLUs) of the wells are considered to be the baseline value at time=zero. In addition, a 10 point, 1:5 serial dilution in DMSO (Sigma-Aldrich) was performed using Matrix 12 channel electronic pipette, including DMSO only as […]. 4 μL of each dilution was then added to 196 μL of RPMI containing 10% CSS with NEAA and Sodium Pyruvate. 16 μL of medium containing compound was added to the cells at a final concentration ranging from 10 μM to 5 pM. Compound dilution in media and subsequent addition to cells were carried out using Matrix 12 channel electronic pipettes. After 5 day compound exposure, 16 μL of CellTiter-Glo (Promega, Madison Wis.) luminescent cell viability reagent was added to the cells using a Matrix 16 channel electronic pipette. CellTiter-Glo added to 32 μL of medium without cells was used to obtain a background value. […] The relative luminescence units (RLUs) of each well were measured, and relative proliferation (fold) of each sample was determined as follows: (RLU sample−RLU background)/(RLU at T=0)=relative proliferation\n(§3) The UbC promoter is reported by the manufacturer (System Biosciences) to express low to moderate RNA levels while the EF1 promoter expresses high levels (System Biosciences)."}, "[2]": {"system": "MCF-7 cells stably expressing EF1 HA-ER-α Y537N", "assay": "cells", "format": "cell-based", "parameters": "Percent inhibition compared to vehicle: concentration or dose not given beside the values", "conditions": "for Percent inhibition compared to vehicle: 5-Day Incubation; for EC50: Homo sapiens, MCF7, EF1 HA-ER-α Y537N, read-out: Potency (EC50; nM)", "text": "as §1, §2, §3"}, "[3]": {"system": "MCF-7 cells stably expressing EF1 HA-ER-α L536P", "assay": "cells", "format": "cell-based", "parameters": "Percent inhibition compared to vehicle: concentration or dose not given beside the values", "conditions": "for Percent inhibition compared to vehicle / Efficacy (Emax): EF1 HA-ER-α L536P; for Percent inhibition compared to vehicle: 5-Day Incubation; for Efficacy (Emax): Day 5 relative to Day 0; for EC50: Homo sapiens, MCF7, EF1 HA-ER-α L536P, read-out: Potency (EC50; nM)", "text": "as §1, §2, §3"}, "[4]": {"system": "MCF-7 cells stably expressing UbC HA-ER-α wild-type", "assay": "MCF-7 Stable Cell Line Viability (UbC HA-ER-α series)", "format": "cell-based", "parameters": "Percent inhibition compared to vehicle: concentration or dose not given beside the values", "conditions": "for EC50: Homo sapiens, MCF7, UbC HA-ER-α Wild-type, read-out: Potency (EC50; nM); for Percent inhibition compared to vehicle / Efficacy (Emax): UbC HA-ER-α Wild-type; for Percent inhibition compared to vehicle: 5-Day Incubation; for Efficacy (Emax): Day 5 relative to Day 0", "text": "as §1, §2, §3"}, "[5]": {"system": "MCF-7 cells (negative control)", "assay": "MCF-7 Stable Cell Line Viability (UbC HA-ER-α series)", "format": "cell-based", "parameters": "Percent inhibition compared to vehicle: concentration or dose not given beside the values", "conditions": "for EC50: Homo sapiens, MCF7, Receptor None (MCF-7 negative control); for Percent inhibition compared to vehicle / Efficacy (Emax): Receptor None (MCF-7 negative control)", "text": "as §1, §2, §3"}, "[6]": {"system": "MCF-7 cells stably expressing ER-α mutants", "conditions": "5 day proliferation assays; depending on the mutation and assay format", "method": "Potency and efficacy of ERM 1-3 were measured in vitro in ER dependent transcriptional reporter assays and viability assays of MCF-7 cells stably expressing ER-α mutants.\nas §1\nMCF-7 Stable Cell Line Viability: MCF-7 cells were enumerated with a hemacytometer adjusted to a concentration of 40,000 cells per mL in Phenol Free RPMI containing 10% CSS with NEAA and Sodium Pyruvate. 16 microliters of the cell suspension was added to each well of a 384 well tissue culture treated white clear bottom polystyrene plate (Corning) using a Matrix 16 channel electronic pipette. The cells were incubated overnight to allow the cells to adhere. […] The “average” of the relative luminescence units (RLUs) of the wells are considered to be the baseline value at time=zero. […] The relative luminescence units (RLUs) of each well were measured, and relative proliferation (fold) of each sample was determined as follows: (RLU sample−RLU background)/(RLU at T=0)=relative proliferation\nPotency and efficacy of ERM 4-23 were measured in vitro in ER dependent transcriptional reporter assays and viability assays of MCF-7 cells stably expressing ER-α mutants."}, "[7]": {"system": "MCF-7 cells stably expressing EF1 HA-ER-α wild-type", "assay": "MCF-7 Stable Cell Line Viability (EF1 HA-ER-α series)", "format": "cell-based", "parameters": "Percent inhibition compared to vehicle: concentration or dose not given beside the values", "conditions": "for Percent inhibition compared to vehicle / Efficacy (Emax): EF1 HA-ER-α Wild-type; for Percent inhibition compared to vehicle: 5-Day Incubation; for Efficacy (Emax): Day 5 relative to Day 0; for EC50: Homo sapiens, MCF7, EF1 HA-ER-α Wild-type, read-out: Potency (EC50; nM)", "text": "as §1, §2, §3"}, "[8]": {"system": "MCF-7 cells transduced with an empty EF1 lentiviral vector (negative control)", "assay": "MCF-7 Stable Cell Line Viability (EF1 HA-ER-α series)", "format": "cell-based", "parameters": "Percent inhibition compared to vehicle: concentration or dose not given beside the values", "conditions": "for EC50: Homo sapiens, MCF7, Receptor None (empty EF1 lentiviral vector), read-out: Potency (EC50; nM); for Percent inhibition compared to vehicle / Efficacy (Emax): Receptor None (empty EF1 lentiviral vector); for Percent inhibition compared to vehicle: 5-Day Incubation; for Efficacy (Emax): Day 5 relative to Day 0", "text": "as §1, §2, §3"}},
  "note": "Where two headings read alike, the source gives them in different places.",
  "data": [
    {"smiles": "CC/C(=C(/c1ccc(/C=C/C(=O)O)cc1)c1ccc2[nH]ncc2c1)c1ccc(F)cc1Cl", "note": "[Compound 1-3, (E)-3-(4-((E)-2-(2-chloro-4-fluorophenyl)-1-(1H-indazol-5-yl)but-1-en-1-yl)phenyl)acrylic acid]", "values": [
      {"measurement": "EC50", "setting": "[1]; Agonist Mode, −E2", "result": "0.926 ± 0.428", "unit": "nM"},
      {"measurement": "EC50", "setting": "[1]; Antagonist Mode, +E2", "result": "6.96 ± 3.76", "unit": "nM"},
      {"measurement": "Percent inhibition compared to vehicle", "setting": "[1]; Agonist Mode, −E2", "result": 55, "unit": "%"},
      {"measurement": "Efficacy (Emax)", "setting": "[1]; Agonist Mode, −E2", "result": "1.73 ± 0.22"},
      {"measurement": "Percent inhibition compared to vehicle", "setting": "[1]; Antagonist Mode, +E2", "result": 71, "unit": "%"},
      {"measurement": "Efficacy (Emax)", "setting": "[1]; Antagonist Mode, +E2", "result": "1.71 ± 0.10"},
      {"measurement": "Percent inhibition compared to vehicle", "setting": "[2]; EF1 HA-ER-α Y537N, Agonist Mode, −E2", "result": 48, "unit": "%"},
      {"measurement": "Efficacy (Emax)", "setting": "[2]; EF1 HA-ER-α Y537N, Agonist Mode, −E2, Day 5 relative to Day 0", "result": "3.11 ± 0.28"},
      {"measurement": "Percent inhibition compared to vehicle", "setting": "[2]; EF1 HA-ER-α Y537N, Antagonist Mode, +E2", "result": 44, "unit": "%"},
      {"measurement": "EC50", "setting": "[2]; Agonist Mode, −E2", "result": "97.3 ± 46.9", "unit": "nM"},
      {"measurement": "EC50", "setting": "[2]; Antagonist Mode, +E2", "result": "125 ± 35.5", "unit": "nM"},
      {"measurement": "Percent inhibition compared to vehicle", "setting": "[3]; Agonist Mode, −E2", "result": 57, "unit": "%"},
      {"measurement": "Efficacy (Emax)", "setting": "[3]; Agonist Mode, −E2", "result": "3.54 ± 0.45"},
      {"measurement": "Percent inhibition compared to vehicle", "setting": "[3]; Antagonist Mode, +E2", "result": 59, "unit": "%"},
      {"measurement": "Efficacy (Emax)", "setting": "[3]; Antagonist Mode, +E2", "result": "3.74 ± 0.53"},
      {"measurement": "EC50", "setting": "[3]; Agonist Mode, −E2", "result": "18.2 ± 3.29", "unit": "nM"},
      {"measurement": "EC50", "setting": "[3]; Antagonist Mode, +E2", "result": "41.9 ± 8.25", "unit": "nM"},
      {"measurement": "EC50", "setting": "[4]; Agonist Mode, −E2", "result": "0.58 ± 0.386", "unit": "nM"},
      {"measurement": "EC50", "setting": "[4]; Antagonist Mode, +E2", "result": "5.5 ± 6.28", "unit": "nM"},
      {"measurement": "Percent inhibition compared to vehicle", "setting": "[4]; Agonist Mode, −E2", "result": 37, "unit": "%"},
      {"measurement": "Efficacy (Emax)", "setting": "[4]; Agonist Mode, −E2", "result": "1.17 ± 0.17"},
      {"measurement": "Percent inhibition compared to vehicle", "setting": "[4]; Antagonist Mode, +E2", "result": 76, "unit": "%"},
      {"measurement": "Efficacy (Emax)", "setting": "[4]; Antagonist Mode, +E2", "result": "1.16 ± 0.03"},
      {"measurement": "EC50", "setting": "[5]; Agonist Mode, −E2, read-out: Potency (EC50; nM)", "result": "0.603 ± 0.74", "unit": "nM"},
      {"measurement": "EC50", "setting": "[5]; Antagonist Mode, +E2, read-out: Potency (EC50; nM)", "result": "4.84 ± 4.42", "unit": "nM"},
      {"measurement": "Percent inhibition compared to vehicle", "setting": "[5]; Agonist Mode, −E2, 5-Day Incubation", "result": 30, "unit": "%"},
      {"measurement": "Efficacy (Emax)", "setting": "[5]; Agonist Mode, −E2, Day 5 relative to Day 0", "result": "1.23 ± 0.88"},
      {"measurement": "Percent inhibition compared to vehicle", "setting": "[5]; Antagonist Mode, +E2, 5-Day Incubation", "result": 70, "unit": "%"},
      {"measurement": "Efficacy (Emax)", "setting": "[5]; Antagonist Mode, +E2, Day 5 relative to Day 0", "result": "0.97 ± 0.01"},
      {"measurement": "reduced the number of viable cells (compared to DMSO control)", "setting": "[6]", "result": "44%-78%"},
      {"measurement": "Percent inhibition compared to vehicle", "setting": "[7]; Agonist Mode, −E2", "result": 48, "unit": "%"},
      {"measurement": "Efficacy (Emax)", "setting": "[7]; Agonist Mode, −E2", "result": "2.97 ± 0.50"},
      {"measurement": "Percent inhibition compared to vehicle", "setting": "[7]; Antagonist Mode, +E2", "result": 59, "unit": "%"},
      {"measurement": "Efficacy (Emax)", "setting": "[7]; Antagonist Mode, +E2", "result": "2.78 ± 0.26"},
      {"measurement": "EC50", "setting": "[7]; Agonist Mode, −E2", "result": "2.84 ± 1.36", "unit": "nM"},
      {"measurement": "EC50", "setting": "[7]; Antagonist Mode, +E2", "result": "28 ± 10.3", "unit": "nM"},
      {"measurement": "EC50", "setting": "[8]; Agonist Mode, −E2", "result": "0.828 ± 0.347", "unit": "nM"},
      {"measurement": "EC50", "setting": "[8]; Antagonist Mode, +E2", "result": "9.27 ± 3.93", "unit": "nM"},
      {"measurement": "Percent inhibition compared to vehicle", "setting": "[8]; Agonist Mode, −E2", "result": 54, "unit": "%"},
      {"measurement": "Efficacy (Emax)", "setting": "[8]; Agonist Mode, −E2", "result": "1.03 ± 0.14"},
      {"measurement": "Percent inhibition compared to vehicle", "setting": "[8]; Antagonist Mode, +E2", "result": 75, "unit": "%"},
      {"measurement": "Efficacy (Emax)", "setting": "[8]; Antagonist Mode, +E2", "result": "1.01 ± 0.12"}
    ]}
  ]
}
